Test results: patent US20220154242A1, “METHOD FOR MODIFYING SUBSTRATE SPECIFICITY OF GLUCOSE DEHYDROGENASE AND AGENT FOR MODIFYING SUBSTRATE SPECIFICITY OF GLUCOSE DEHYDROGENASE” (KIKKOMAN CORPORATION, priority 2019, published 2022)

Columns and labels:
[1] = system: GLD1 (glucose dehydrogenase (FAD-dependent), BBI Solutions); test: Maltose/glucose response current ratio, unimmobilized GLD1 with mPMS (chronoamperometry); format: biochemical, Aspergillus; conditions: for Maltose/Glucose (%) / Relative value (%) of Maltose/Glucose: 5 mM additive; for Maltose/Glucose (%): mPMS; for Relative value (%) of Maltose/Glucose: no modifier = 100%
Procedure: (§1) 10 μL of 12 mg/ml MpGDH purified preparation, 10 μL of 15 mM each glucose analog, and 10 μL of 20 mM potassium phosphate buffer were mixed and allowed to stand for 2 hours or longer. Onto screen-printed electrodes (manufactured by DropSens, Product number: DRP-C110), 80 μL of PBS, 5 μL of each MpGDH solution, and 10 μL of 2 mg/ml mPMS solution were applied and mixed. Chronoamperometric measurement was carried out at an applied voltage of +100 mV (Ag/Ag+). Once the current value had become sufficiently constant (about 100 seconds after the start of measurement), a maltose solution was added to a final concentration of 5 mM and mixed by pipetting up and down. Measurement was stopped once the current value had become sufficiently constant. The difference in the response current before and after the addition of maltose was regarded as the response current value of maltose. In contrast, when an equivalent amount of pure water was added instead of the maltose solution, increase in the response current was not observed. The used printed electrode was thoroughly washed with ultrapure water and dried, and then chronoamperometric measurement was carried out in the same manner as above. A glucose solution was added instead of the maltose solution and the response current value of glucose was measured. The value calculated by dividing the response current value of maltose by the response current value of glucose was expressed as maltose/glucose (%).
In the same manner, GLD1 was used to examine the effect of the substrate specificity modifier.

MrdGDH [2] = test: Maltose/glucose response current ratio, IPPD/MrdGDH-immobilized screen-printed electrode (chronoamperometry); format: biochemical, Mucor RD056860; conditions: for Maltose/Glucose (%) / Relative value (%) of Maltose/Glucose: 5 mM additive; for Maltose/Glucose (%): 1 mM maltose, 1 mM glucose; for Relative value (%) of Maltose/Glucose: no modifier = 100%
Source text: (§2) The ratio (Mal/Glu) of the reactivity of the glucose dehydrogenase to maltose (Mal) relative to the reactivity thereof to glucose (Glu) can be determined by the following procedures. Onto a printed carbon electrode, N-isopropyl-N′-phenyl-p-phenylenediamine (IPPD) is immobilized by adsorption and a glucose dehydrogenase is immobilized by cross-linking using glutaraldehyde, wherein the glucose dehydrogenase is, for example, a glucose dehydrogenase from a microorganism of the genus Mucor or a glucose dehydrogenase from a microorganism of the genus Aspergillus. Chronoamperometry is performed by using a three-electrode system composed of a working electrode, a counter electrode, and a reference electrode and applying a potential of +250 mV (Ag/AgCl). Once the current value has become sufficiently constant, maltose is added to a final concentration of 1 mM in phosphate-buffered saline (PBS) (for example, maltose is added 100 seconds after the start of measurement). Next, once the current value has become sufficiently constant again after the addition of maltose, glucose is added to a final concentration of 1 mM in phosphate-buffered saline (PBS) (for example, glucose is added 100 seconds after the addition of maltose). The substrate specificity of glucose dehydrogenase can be evaluated by measuring the reactivity thereof to maltose when the reactivity thereof to glucose is considered as 100%. In the present specification, the ratio of the reactivity to maltose (Mal) relative to the reactivity to glucose (Glu) may be denoted as Mal/Glu. When the reactivity is evaluated based on the response current(s), the ratio of the reactivity may be expressed as the ratio of the response current(s).
(§3) 10 μL of 12 mg/ml MpGDH purified preparation, 10 μL of 15 mM each glucose analog, and 10 μL of 20 mM potassium phosphate buffer were mixed and allowed to stand for 2 hours or longer. N-isopropyl-N′-phenyl-p-phenylenediamine (IPPD) was immobilized by adsorption onto screen-printed electrodes (manufactured by DropSens, Product number: DRP-C110) and 12 μg of each MpGDH was applied to the electrodes and allowed to dry at room temperature. Lastly, the electrodes were placed in 25% glutaraldehyde vapor and the resulting electrodes were washed with pure water to obtain IPPD.MpGDH-immobilized electrodes. Next, the electrode was connected to an ALS electrochemical analyzer 814D via a dedicated connector (DRP-CAC). Then, the IPPD.GDH-immobilized electrode, an Ag/AgCl reference electrode, and a platinum counter electrode were immersed in PBS and chronoamperometric measurement was carried out. The applied voltage was set to +250 mV (Ag/AgCl). Once the current value had become sufficiently constant (about 100 seconds after the start of measurement), maltose was added to a final concentration of 1 mM in PBS. Next, subsequently to the addition of the maltose solution, once the current value had become sufficiently constant again (about 100 seconds after the addition of maltose), a glucose solution was added to a final concentration of 1 mM. The difference in the response current before and after the addition of maltose was recorded as the response current value of maltose, and the difference in the response current before and after the addition of glucose was recorded as the response current value of glucose. The value calculated by dividing the response current value of maltose by the response current value of glucose was expressed as maltose/glucose (%). […] Furthermore, when the maltose/glucose of MpGDH in the absence of a substrate specificity modifier is considered as 100%, the value in the presence of D-glucal became 69%, and the substrate specificity was modified.
(§4) In the same manner, MrdGDH was used to examine the effect of the substrate specificity modifier.

[3] = system: GLD1 (glucose dehydrogenase (FAD-dependent), BBI Solutions); test: Maltose/glucose response current ratio, IPPD/GLD1-immobilized screen-printed electrode (chronoamperometry); format: biochemical, Aspergillus; conditions: for Maltose/Glucose (%) / Relative value (%) of Maltose/Glucose: 5 mM additive; for Maltose/Glucose (%): 1 mM maltose, 1 mM glucose; for Relative value (%) of Maltose/Glucose: no modifier = 100%
Source text: as §2, §3
In the same manner, glucose dehydrogenase (FAD-dependent) (from BBI Solutions, Product Code: GLD1, hereinafter denoted as GLD1) was used to examine the effect of the substrate specificity modifier.

Wild type MpGDH [4] = test: Maltose/glucose response current ratio, IPPD/MpGDH-immobilized screen-printed electrode (chronoamperometry); format: biochemical, Mucor prainii; conditions: for Relative value (%) of Maltose/Glucose / Maltose/Glucose (%): 5 mM additive, immobilized wild type MpGDH; for Relative value (%) of Maltose/Glucose: no modifier = 100%; for Maltose/Glucose (%): 1 mM maltose, 1 mM glucose, +250 mV; for Modification of substrate specificity: immobilized MpGDH
Source text: as §2, §3

MrdGDH [5] = test: Maltose/glucose response current ratio, unimmobilized MrdGDH with mPMS (chronoamperometry); format: biochemical, Mucor RD056860; conditions: for Maltose/Glucose (%) / Relative value (%) of Maltose/Glucose: 5 mM additive; for Maltose/Glucose (%): mPMS; for Relative value (%) of Maltose/Glucose: no modifier = 100%
Procedure: as §1, §4

MpGDH = test: Maltose/glucose response current ratio, unimmobilized MpGDH with mPMS (chronoamperometry); format: biochemical, Mucor prainii; conditions: for maltose/glucose relative to MpGDH considered as 100%: unimmobilized MpGDH, mPMS, 5 mM maltose, +100 mV
Procedure: as §1

Wild type MpGDH [6] = test: Maltose/glucose response current ratio, MWCNT/DPPD/MpGDH-immobilized carbon cloth electrode (chronoamperometry); format: biochemical, Mucor prainii; conditions: for Maltose/Glucose Relative value (%): 50 mM additive, wild type MpGDH on carbon cloth electrode, no modifier = 100%; for Modification of substrate specificity of GDH: carbon cloth electrode, MpGDH
Procedure: The cloth was thoroughly dried and then washed with ultrapure water. Subsequently, 40 mg/ml wild type MpGDH and 20 μl of 100 mM various glucose analogs dissolved in ultrapure water were mixed in equal proportions, and 20 μl of the resulting solution was applied to the […] immobilized electrode. After being allowed to dry at room temperature, the electrode was placed in 25% glutaraldehyde vapor for 20 minutes to immobilize MpGDH by cross-linking. Then, the electrode was subjected to washing with ultrapure water in the same manner as above to obtain an […]-immobilized electrode. Next, this electrode was connected to an ALS electrochemical analyzer […]. Then, the […]-immobilized electrode, an Ag/AgCl reference electrode, and a platinum counter electrode were immersed in PBS, and chronoamperometric measurement was carried out. The applied voltage was set to +250 mV (Ag/AgCl). […] The difference in the response current before and after the addition of maltose was recorded as the response current value of maltose, and the difference in the response current before and after the addition of glucose was recorded as the response current value of glucose. The value calculated by dividing the response current value of maltose by the response current value of glucose was expressed as maltose/glucose (%). […] An […]-immobilized electrode was made in the same manner as Example 4 except that the application step was altered. That is, 20 μl of 40 mg/ml wild type MpGDH was mixed with 10 μl each of 100 mM glycerol and 100 mM L-iditol dissolved in ultrapure water, and 20 μl of the resulting solution was applied to the […] immobilized electrode for the application step. Then, chronoamperometric measurement was carried out according to the method described in Example 4, and the maltose/glucose (%) was calculated.

| Structure (SMILES) | Modification of substrate specificity [1] | Maltose/Glucose (%) [1] [%] | Relative value (%) of Maltose/Glucose [1] [%] | Modification of substrate specificity (MrdGDH [2]) | Maltose/Glucose (%) (MrdGDH [2]) | Relative value (%) of Maltose/Glucose (MrdGDH [2]) [%] | Modification of substrate specificity [3] | Maltose/Glucose (%) [3] [%] | Relative value (%) of Maltose/Glucose [3] [%] | Relative value (%) of Maltose/Glucose (Wild type MpGDH [4]) [%] | Modification of substrate specificity (MrdGDH [5]) | Maltose/Glucose (%) (MrdGDH [5]) | Relative value (%) of Maltose/Glucose (MrdGDH [5]) [%] | Maltose/Glucose (%) (Wild type MpGDH [4]) | Modification of substrate specificity (Wild type MpGDH [4]) | maltose/glucose relative to MpGDH considered as 100% (MpGDH) [%] | Maltose/Glucose Relative value (%) (Wild type MpGDH [6]) | Modification of substrate specificity of GDH (Wild type MpGDH [6]) | Acts as substrate specificity modifier (MpGDH; enzyme not immobilized) |
| --- | --- | --- | --- | --- | --- | --- | --- | --- | --- | --- | --- | --- | --- | --- | --- | --- | --- | --- | --- |
| OC[C@H]1OC=C[C@@H](O)[C@@H]1O [D-glucal] | modified the substrate specificity | 0.25 | 76 | modified the substrate specificity | 18.1 | 78 | modified the substrate specificity | 0.09 | 30 | 69 | – | – | – | – | – | – | – | – | – |
| OC[C@@H](O)[C@H](O)[C@@H](O)[C@H](O)CO [D-iditol] | – | – | – | modified the substrate specificity | 19.3 | 83 | modified the substrate specificity | 0.01 | 4 | 22 | modified the substrate specificity | 21.6 | 70 | 0.1 | modified the substrate specificity | 84 | – | – | – |
| OC[C@@H](O)[C@@H](O)[C@H](O)[C@H](O)CO [D-mannitol] | – | – | – | – | – | – | – | – | – | – | – | – | – | – | – | – | 3 | modified the substrate specificity | – |
| OCC(O)CO [Glycerol, glycerol] | – | – | – | – | – | – | – | – | – | – | – | – | – | – | – | – | 29 | modified the substrate specificity | – |
| O=C[C@@H](O)[C@@H](O)[C@H](O)[C@@H](O)CO [L-gulose] | modified the substrate specificity | 0.23 | 70 | – | – | – | modified the substrate specificity | 0 | 0 | 74 | modified the substrate specificity | 28 | 90 | 0.34 | modified the substrate specificity | 56 | 62 | modified the substrate specificity | – |
| OC[C@H](O)[C@@H](O)[C@H](O)[C@@H](O)CO [L-iditol] | modified the substrate specificity | 0.25 | 76 | – | – | – | modified the substrate specificity | 0 | 0 | – | – | – | – | – | – | 68 | 58 | modified the substrate specificity | act as a substrate specificity modifier |
| OC[C@@H](O)[C@@H](O)[C@@H](O)CO [Ribitol, ribitol] | modified the substrate specificity | 0.29 | 88 | – | – | – | – | – | – | 17 | modified the substrate specificity | 22 | 71 | 0.08 | modified the substrate specificity | 58 | – | – | – |
| OC[C@@H](O)[C@@H](O)[C@H](O)[C@@H](O)CO [Sorbitol, sorbitol] | – | – | – | modified the substrate specificity | 17 | 73 | – | – | – | 43 | modified the substrate specificity | 23 | 74 | 0.2 | modified the substrate specificity | 67 | – | – | – |
| OC[C@H]1O[C@H](O[C@H]2O[C@H](CO)[C@@H](O)[C@H](O)[C@H]2O)[C@H](O)[C@@H](O)[C@@H]1O [Trehalose, trehalose] | modified the substrate specificity | 0.28 | 85 | modified the substrate specificity | 14.4 | 62 | modified the substrate specificity | 0.08 | 35 | – | modified the substrate specificity | 22 | 71 | – | – | 72 | – | – | – |
| OC[C@@H](O)[C@H](O)[C@@H](O)CO [Xylitol, xylitol] | – | – | – | – | – | – | – | – | – | – | – | – | – | – | – | – | 21 | modified the substrate specificity | – |
